Laboratory results published in patent US4308210A, “Nanaomycin B and therapeutic compositions containing same” (The Kitasato Institute, priority 1976, dated 1981).
Converted amounts (≈) assume the structure as drawn. Where two headings read alike, the source gives them in different places.

Tests used:
Test in all cases: Antimicrobial spectrum, MIC, PPLO agar
Format in all cases: cell-based
[1] = test system: Acholeplasma laidlawii (A) PG8
Description: (§1) H Hokken PPLO agar (pH 7.8, 8 days, 37° C.)
(§2) E Eiken PPLO agar (pH 7.8, 8 days, 37° C.)
(§3) MIC Minimal inhibitory concentration

[2] = test system: Mycoplasma gallisepticum 333P (Spiramycin resistant); conditions: for MIC: Mycoplasmoides gallisepticum, 192 h
Description: as §1, §2, §3

[3] = test system: Mycoplasma gallisepticum KP-13; conditions: Mycoplasmoides gallisepticum, KP13, 192 h
Description: as §1, §2, §3

[4] = test system: Mycoplasma gallisepticum S-6; conditions: Mycoplasmoides gallisepticum, S6, 192 h
Description: as §1, §2, §3

[5] = pH 7.8, Eiken PPLO agar (pH 7.8, 8 days, 37° C.)
[6] = pH 7.8, Hokken PPLO agar (pH 7.8, 8 days, 37° C.)

CC1OC(CC(=O)O)CC2C(=O)c3cccc(O)c3C(=O)C12O (stereo not drawn) [Nanaomycin B]
MIC ([1]; Acholeplasma laidlawii, 192 h, Hokken PPLO agar (pH 7.8, 8 days, 37° C.), read-out: MIC): > 25 µg/mL
MIC ([1]; Eiken PPLO agar (pH 7.8, 8 days, 37° C.)): > 25 µg/mL
MIC [2, 5]: 0.05 µg/mL (≈ 0.156 µM)
MIC [2, 6]: 0.013 µg/mL (≈ 0.0406 µM)
antimicrobial activity on spiramycin-resistant Mycoplasma gallisepticum ([2]; in words): high antimicrobial activity
MIC [3, 6]: < 0.013 µg/mL
MIC ([3]; Eiken PPLO agar (pH 7.8, 8 days, 37° C.), read-out: MIC): 0.1 µg/mL (≈ 0.312 µM)
MIC [4, 5]: 0.1 µg/mL (≈ 0.312 µM)
MIC [4, 6]: < 0.013 µg/mL
